Laboratory results as given in patent US11040052B2, “Methods and pharmaceutical compositions for modulating autophagy in a subject in need thereof” (INSERM (INSTITUT NATIONAL DE LA SANTE ET DE LA RECHERCHE …, priority 2013, dated 2021).

Legend:
[1] = system: U2OS cells stably expressing GFP-LC3; experiment: Autophagy in cultured cells: GFP-LC3 puncta formation and LC3 lipidation with or without bafilomycin A1; assay type: cell-based, human; conditions: for autophagic flux (GFP-LC3 puncta formation, LC3 lipidation): cells kept in rich medium, presence and absence of BafA1; for statin-induced autophagy upon supplementation: 12 hours, Simvastatin and Mevastatin
Protocol: U2OS, HeLa or H4 cells stably expressing GFP-LC3 were seeded in 96-well imaging plates (BD Falcon, Sparks, USA) 24 h before stimulation. Cells were treated with the indicated agents for 4 h. […] Images were analyzed for the presence of GFP-LC3 puncta in the cytoplasm by means of the BD Attovision software (BD Imaging Systems). Cell surfaces were segmented and divided into cytoplasmic and nuclear regions according to manufacturer standard proceedings. RB 2×2 and Marr-Hildreth algorithms were used to recognize cytoplasmic GFP-LC3 positive dots. Statistical analyses were implemented on the R software (http://www.r-project.org/). For quantitative analyses of protein acetylation, cell surfaces were segmented into cytoplasm and nuclei regions, and staining intensity of each individual cell was measured for statistical analysis.
Membranes were then sliced in different parts according to the molecular weight of the protein of interest to allow simultaneous detection of different antigens within the same experiment. Unspecific binding sites were saturated by incubating membranes for 1 h in 0.05% Tween 20 (v:v in TBS) supplemented with 5% non-fat powdered milk (w:v in TBS), followed by the overnight incubation with primary antibodies specific for acetylated-lysine, LC3, phospho-AMPK (Thr172), AMPK, phospho-ribosomal protein S6 kinase (Thr421/Ser424), ribosomal protein S6 kinase, or STQM/p62 (Santa Cruz Biotechnology). Development was performed with appropriate horseradish peroxidase (HRP)-labeled secondary antibodies (Southern Biotech, Birmingham, USA) plus the SuperSignal West Pico chemoluminescent substrate (Thermo Scientific-Pierce). An anti-glyceraldehyde-3-phosphate dehydrogenase antibody (Chemicon International, Temecula, USA) was used to control equal loading of lanes.
For immunoblotting, protein extracts obtained by cellular lysis via RIPA buffer were run on 4-12% Bis-Tris acrylamide (Invitrogen) and electrotransferred to […] PVDF membranes (Biorad, USA). Unspecific binding sites were saturated by incubating membranes for 1 h in 0.05% Tween 20 (v:v in TBS) supplemented with 5% non-fat powdered milk (w:v in TBS), followed by an overnight incubation with primary antibodies specific for, LC3, phospho-AMPK (Thr172), AMPK, phosphor-ACC (Ser79), ACC, phospho-ribosomal protein S6 kinase (Thr421/Ser424), ribosomal protein S6 kinase, or SQSTM/p62 (Abnova). Membranes were opportunely cut in order to allow simultaneous detection of different molecular weight proteins. Development was performed with horseradish peroxidase (HRP)-labeled secondary antibodies (Southern Biotech, Birmingham, USA) plus the SuperSignal West Pico chemo luminescent substrate (Thermo Scientific-Pierce). An anti-glyceraldehyde-3-phosphate dehydrogenase antibody (Abcam) and anti-Actin antibody (Abcam) were used to ensure equal loading of lanes. Quantification was performed by densitometry by means of Image J software.
U2OS and H4 cells stably expressing GFP-LC3 were seeded in 96-well or 384-well imaging plates (BD Falcon, Sparks, USA). 24 h before stimulation, ells were treated with the indicated agents for 6 hours in absence of lysososomal ATPase inhibitors and for 3 hours in presence of Bafilomycin A1. […] Images were analyzed for the detection of GFP-LC3 puncta in the cytoplasm by means of the BD Attovision software (BD Imaging Systems. Cellular regions of interest, cytoplasm and nucleus, were defined and segmented according to standard proceedings. RB 2×2 and Marr-Hildreth algorithms were employed to allow the detection of GFP LC3 puncta. Statistical analyses were conducted using the R and Prism softwares (http://www.r-project.org/). For quantitative analyses of protein acetylation, cell surfaces were segmented intocytoplasmic and nucleic regions, and staining intensity of each individual cell was measured for statistical analysis.

MCA205 tumor = experiment: Growth of transplantable tumors with chemotherapy; assay type: in vivo, mice; conditions: for tumor growth, combined with MTX: immunocompetent wild type mice, agent given before and with mitoxanthrone
Protocol: C57BL/6 mice (Charles River Laboratory, Lentilly, France) were bred and maintained according to both the FELASA and the Animal Experimental Ethics Committee Guidelines (Val de Marne, France). Mice were housed in a temperature-controlled environment with 12 h light/dark cycles and received food and water ad libitum. For HC-related experiments, mice were injected intraperitoneally with a single 100 mg/kg dose and 6 h later were sacrificed and tissues were immediately frozen in liquid nitrogen. For DCA- and DMKG-related experiments, mice were subjected to 24 h starvation and injected intraperitoneally each 8 h with a 100 mg/kg of either DCA or DMKG solution prepared in PBS. After 24 h of starvation, mice were sacrificed and tissues were immediately frozen in liquid nitrogen after extraction and homogenized two cycles for 20 s at 5,500 rpm using Precellys 24 tissue homogenator (Bertin Technologies, Montigny-le-Bretonneux, France) in a 20 mM Tris buffer (pH 7.4) containing 150 mM NaCl, 1% Triton X-100, 10 mM EDTA and Complete® protease inhibitor cocktail (Roche Applied Science). Tissue extracts were then centrifuged at 12,000 g at 4° C. and supernatants were collected. Protein concentration in the supernatants was evaluated by the bicinchoninic acid technique (BCA protein assay kit, Pierce Biotechnology, Rockford, Ill.). For hydroxycitrate-related weight-loss experiments, autophagy-deficient Atg4b^−/− mice were used. Atg4b^−/− mice have been previously described (Mariño et al., 2010). For HC-, spermidine-, and resveratrol-related experiments (tumour growth) mice were intraperitoneally injected with respectively 100 mg/kg, 50 mg/kg and 100 mg/kg doses at day 8 and day 9. At day 9, mice were intraperitoneally injected with 2 mg/kg single dose of Mitoxanthrone. For starvation related experiment (tumour growth) mice were treated as previously described (Fabrizio et. al., 2010).
Six weeks old female C57BL/6, Balb/c and nude athymic mice (Harlan Laboratory, Gannat, France) were bred and maintained according to both the FELASA and the Animal Experimental Inserm Ethics Committee Guidelines (project: 2012-69). Mice were housed in a temperature-controlled environment with 12 h light/dark cycles and received food and water ad libitum. For tumor growth experiments, procedures adopted are described as follows: 3×10^5 tumor cells were subcutaneously inoculated; when tumors became palpable (day −1 before chemotherapy), mice were first intraperitoneally injected with 100 mg/kg Potassium Hydroxycitrate, 10 mg/kg Acetylsalicylic Acid, 30 mg/kg SB204990, 30 mg/kg c646, 5 mg/kg Rapamycin, 25 mg/kg Resveratrol, 50 mg/kg Spermidine. At day 0, mice were intraperitoneally injected with the abovementioned compounds and with 5.17 mg/Kg Mitoxanthrone or 5 mg/kg Oxaliplatin. Tumor size was measured every two days. For starvation experiments, mice underwent 48 hour fasting followed by intreperitoneal injection of chemotherapeutics. For autophagy induction study, 6 hours after CRMs administration, mice were sacrificed and tissues were snap-frozen in liquid nitrogen after extraction and homogenized two cycles for 20 s at 5,500 rpm using Precellys 24 tissue homogenator (Bertin Technologies, Montigny-le-Bretonneux, France) in a 20 mM Tris buffer (pH 7.4) containing 150 mM NaCl, 1% Triton X-100, 10 mM EDTA and Complete® protease inhibitor cocktail (Roche Applied Science, Penzberg, Germany). Tissue extracts were then centrifuged at 12,000 g at 4° C. and supernatants were collected. Protein concentration in the supernatants was evaluated by the bicinchoninic acid technique (BCA protein assay kit, Pierce Biotechnology, Rockford, US.

AcCoA levels = experiment: Targeted analysis of AcCoA levels in cultured cells (HPLC-MS); assay type: cell-based, human; conditions: cells kept in rich medium
Protocol: Cells were trypsinized, pelleted at 1000 rpm for 4 min, washed with PBS and pelleted again at 1000 rpm for 4 min. Cells were then resuspended in 5 ml of ice-cold hyposmotic buffer and keep on ice for 5 min. Cells were broken to release nuclei using a pre-chilled Dounce homogenizer (20 strokes with a tight pestle) and then were then centrifuged at 228 g.
For in vitro experiments, cell pellets were resuspended in 300 μL of water with HEPES and EDTA (pH 7.4) at 1 mM containing internal standard acetylcoenzyme A (2-C13) at 1 mg/L, vortexed and heated at 100° C. for 1 min. Samples were incubated in liquid nitrogen for 1 min and thawed at room temperature two times. They were let for 1 h at −20° C. and centrifuged at 4° C. during 15 min at 13,000 g. Supernatants were transferred in HPLC vials and injected in HPLC/MS or kept at −80° C. until injection. For in vivo experiments, frozen tissues were placed in ice-cold homogenization tubes containing ceramic beads. Five μL of ice-cold methanol/water (80/20; v/v) were added for 1 mg of tissue. Tissues were homogenized two times for 20 s at 5,500 rpm using Precellys 24 tissue homogenator (Bertin Technologies, Montigny-le-Bretonneux, France). Samples were placed 10 min on ice. Next they were centrifuged at 4° C. during 15 min at 13,000 g. Supernatants were transferred in HPLC vials and injected in HPLC-MS system or kept at −80° C. until injection.
Targeted analyses were performed on Rapid Resolution Liquid Chromatography (RRLC) 1200SL system (Agilent Technologies, Waldbronn, Germany) coupled to a Triple Quadruple QQQ 6410 mass spectrometer (Agilent Technologies). RRLC analysis was done on 150×2.1 mm, 3.5 μm Eclipse Plus SB-Aq column with a pre-column 30 mm×2.1 mm 3.5 μm Eclipse plus (Agilent Technologies) with water containing 10 mmol/L of ammonium acetate and 0.01% of acetic acid in channel A and acetonitrile in channel B in gradient mode at a flow rate of 0.3 mL·min^−1: t=0 min 2% B; t=9 min 95% B; t=11 min 95% B; re-equilibration time of 3 min. Mass spectrometer analysis was done in positive electrospray ionization mode at +4 kV on the QQQ system operating in MRM mode. MRM transitions were optimized with standard of AcCoA and AcCoA A 2-C^13 with direct infusion. Two transitions were recorded for each compound; • AcCoA 810>303 CE (collision energy) 28V; fragmentor 180V • 810>428 CE 20V • AcCoA 2-C13 812>305 CE 28V; fragmentor 180V • 812>428 CE 24V […]

O=C(O)C[C@]1(O)C[C@H](CCCCCCc2ccc(Cl)cc2Cl)OC1=O (relative stereo) [SB-204990, (3R,5S)-rel-5-[6-(2,4-Dichlorophenyl)hexyl]tetrahydro-3-hydroxy-2-oxo-3-furanacetic acid]
autophagic flux (GFP-LC3 puncta formation, LC3 lipidation) [1]: stimulated autophagic flux in cultured cancer cells | autophagic flux (GFP-LC3 puncta formation, LC3 lipidation) ([1]; listed as SB204990): induce autophagic flux | tumor growth, combined with MTX (MCA205 tumor): HC could be replaced | tumor growth, combined with MTX (MCA205 tumor; listed as SB204990): can enhance chemotherapy efficacy | tumor growth, combined with MTX, immunodeficient mice (MCA205 tumor; nu/nu (nude athymic) mice): failed

CC1COC(=O)C1 (centres unmarked) [3-methylbutyrolactone]
autophagic flux (GFP-LC3 puncta formation, LC3 lipidation) [1]: marked increase in GFP-LC3 puncta

COc1ccc(-c2ccccc2)cc1NS(=O)(=O)c1cc(Cl)cc(Cl)c1O [BMS-303141, 3 5-Dichloro-2-hydroxy-N-(4-methoxy[1,1′-biphenyl]-3-yl)-benzenesulfonamide]
autophagic flux (GFP-LC3 puncta formation, LC3 lipidation) [1]: stimulated autophagic flux in cultured cancer cells | autophagic flux (GFP-LC3 puncta formation, LC3 lipidation) ([1]; listed as BMS303141): induce autophagic flux

C1CCC(C(CC2CCCCN2)C2CCCCC2)CC1 (centres unmarked) [PHX, perhexiline]
AcCoA levels (AcCoA levels): reduced AcCoA cellular levels | autophagic flux (GFP-LC3 puncta formation, LC3 lipidation) [1]: induced signs of autophagy

CCCCCCCCCCCCCCCc1cccc(O)c1C(=O)O [anacardic acid, 6-pentadecylsalicylic acid]
autophagic flux (GFP-LC3 puncta formation, LC3 lipidation) [1]: marked increase in GFP-LC3 puncta

COc1cc(/C=C/C(=O)CC(=O)/C=C/c2ccc(O)c(OC)c2)ccc1O [curcumin]
autophagic flux (GFP-LC3 puncta formation, LC3 lipidation) [1]: marked increase in GFP-LC3 puncta

CC(O)(CCO)CC(=O)O (centres unmarked) [mevalonate]
statin-induced autophagy upon supplementation [1]: only suppresses statin-induced autophagy | statin-induced autophagy upon supplementation ([1]; listed as Mevalonate): reverts statins-induced
